One experiment has as its system CCRF-CEM cells. Description: Cell proliferation assay (CellTiter 96). Format: cell-based, human. The following applies: for reducing the cell proliferation (in words): 24–96 h. The method, then: (§1) Human leukemia cell line CCRF-CEM (ATCC no. CCL-119), human ovarian adenocarcinoma cell line SK-OV-3 (ATCC no. HTB-77), human breast carcinoma cell line MDA-MB-231 (ATCC no.HTB-26), and human colon adenocarcinoma cell line HT-29 (ATCC no. HTB-38) were obtained from American Type Culture Collection. Cells were grown on 75 cm^2 cell culture flasks with […] (for leukemia cells) and EMEM (Eagle’s minimum essential medium) (for SK-OV-3, HT-29, MDA-MB-231 cells), supplemented with 10% fetal bovine serum (FBS), and 1% penicillin-streptomycin solution (10,000 units of penicillin and 10 mg of streptomycin in 0.9% NaCl) in a humidified atmosphere of 5% CO2, 95% air at 37 °C.
(§2) The cell proliferation assay was carried out using a CellTiter 96 aqueous one-solution cell proliferation assay kit (Promega, Madison, WI, USA). Briefly, upon reaching about 75–80% confluence, 5000 cells/well were plated in 96-well microplate in 100 μL of the medium. After seeding for 24 h, the cells were treated with 50 µM compound in triplicate. Doxorubicin (10 µM) was used as a positive control. […] The plate was returned to the incubator for 1 h in a humidified atmosphere at 37 °C. The absorbance of the formazan product was measured at 490 nm using a microplate reader. The blank control was recorded by measuring the absorbance at 490 nm with wells containing medium mixed with CellTiter 96 aqueous solution but no cells. The percentage of cell survival was calculated as the OD value of cells treated with test compound − OD value of culture medium/(OD value of control cells − OD value of culture medium) × 100%. The same strategy was used for generating a dose-response graph for compound 10.

The subject of the next experiment is MDA-MB-231 cells. Description: Cell proliferation assay (CellTiter 96). Format: cell-based, human. The following applies: for reducing the cell proliferation (in words): 24–96 h. The method, then: as §1, §2
The subject of a further experiment is HT-29 cells. Kind of experiment: Cell proliferation assay (CellTiter 96). Conditions: for reducing the cell proliferation (in words): 24–96 h. The format is cell-based, human. On the procedure: as §1
(§3) The cell proliferation assay was carried out using a CellTiter 96 aqueous one-solution cell proliferation assay kit (Promega, Madison, WI, USA). Briefly, upon reaching about 75–80% confluence, 5000 cells/well were plated in 96-well microplate in 100 μL of the medium. After seeding for 24 h, the cells were treated with 50 µM compound in triplicate. Doxorubicin (10 µM) was used as a positive control. At the end of the sample exposure period (72 h), 20 µL of CellTiter 96 aqueous solution was added. The plate was returned to the incubator for 1 h in a humidified atmosphere at 37 °C. The absorbance of the formazan product was measured at 490 nm using a microplate reader. The blank control was recorded by measuring the absorbance at 490 nm with wells containing medium mixed with CellTiter 96 aqueous solution but no cells. The percentage of cell survival was calculated as the OD value of cells treated with test compound − OD value of culture medium/(OD value of control cells − OD value of culture medium) × 100%. The same strategy was used for generating a dose-response graph for compound 10.

A further experiment concerns SK-OV-3 cells. Description: Cell proliferation assay (CellTiter 96). Format: cell-based, human. The following applies: for reducing the cell proliferation (in words): 24–96 h; for pIC50: SK-OV-3 cells, 72 h incubation. On the procedure:
as §1, §3

Experiment [1] concerns the target T1, c-Src (Homo sapiens, UniProt P12931). Kind of experiment: c-Src kinase activity assay (Transcreener ADP fluorescence intensity). Format: biochemical. Details: 0.7 nM of His6-Src kinase domain in kinase buffer; His6. The following applies: in vitro Src kinase inhibition, His6-Src kinase domain, triplicate. The method, then:
In summary, the kinase reaction was started in the 384-well low volume black microplate with the incubation of 2.5 μL of the reaction cocktail (0.7 nM of His6-Src kinase domain in kinase buffer) with 2.5 μL of prediluted compounds (dissolved in 10% DMSO, 4× target concentration) for 10 min at room temperature using microplate shaker. The reaction cocktail was made using the kinase buffer HEPES (200 mM, pH 7.5), MgCl2 (16 mM), EGTA (8 mM), DMSO (4%), Brij-35 (0.04%), and 2-mercaptoethanol (43 mM). The kinase reaction was started by adding 5 μL of ATP/substrate (40 μM/600 μM) cocktail and incubated for 30 min at room temperature on a microplate shaker. Src optimal peptide ([…]) was used as the substrate for the kinase reaction. The kinase reaction was stopped by adding 10 μL of the 1× ADP Detection Mixture to the enzyme reaction mixture and mixed using a plate shaker. The mixture was incubated at room temperature for 1 h, and the fluorescence intensity was measured. The 1× ADP Detection Mixture was prepared by adding ADP^2 Antibody-IRDyeR QC-1 (10 μg/mL) and ADP Alexa594 Tracer (8 nM) to Stop and Detect Buffer B(1×). The fluorescence Intensity measurements were performed using a fluorescence intensity optical module using the excitation of 580 nm and emission of 630 nm with bandwidths of 10 nm by Optima, BMG Labtech microplate reader (BMG Labtech, Ortenberg, Germany). The IC50 values of the compounds were calculated using ORIGIN 6.0 (Origin Lab, Microcal Software, Inc. Northhampton, MA, USA) software. […] All the experiments were carried out in triplicate.
Target sequence in this assay (P12931 270-523 limits assumed): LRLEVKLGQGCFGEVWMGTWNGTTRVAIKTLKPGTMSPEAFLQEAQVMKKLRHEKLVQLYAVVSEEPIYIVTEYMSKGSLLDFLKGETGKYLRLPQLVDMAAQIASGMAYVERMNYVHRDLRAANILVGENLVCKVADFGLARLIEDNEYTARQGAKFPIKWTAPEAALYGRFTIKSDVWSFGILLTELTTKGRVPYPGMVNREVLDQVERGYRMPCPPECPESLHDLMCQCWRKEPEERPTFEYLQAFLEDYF

The target of a further experiment is T2, Lck (Homo sapiens, UniProt P06239).
T2 construct: purchased Invitrogen (assay run by Reaction Biology Corporation) P3043
Kind of experiment: Kinase panel, radiometric filter-binding (Reaction Biology). The format is biochemical. Conditions: 200 µM ATP, values above 1 µM estimated from curve fit.

The target of another experiment is T3, Akt1 (Homo sapiens, UniProt P31749).
T3 construct: purchased Invitrogen (assay run by Reaction Biology Corporation) PR3878D
The description is as above. The following applies: 200 µM ATP, NA = not active, values above 1 µM estimated from curve fit. The format is biochemical. The method, then:
Required cofactors were added individually to each kinase reaction. […] The serial dilution was conducted by Integra Viaflo Assist in DMSO.

In experiment [2] the target is T1, c-Src. Described as above. Format: biochemical. Set-up: purchased Invitrogen (assay run by Reaction Biology Corporation) P3044. The following applies: 200 µM ATP, values above 1 µM estimated from curve fit.
Target sequence in this assay (P12931 whole entry, the tested form may be a part): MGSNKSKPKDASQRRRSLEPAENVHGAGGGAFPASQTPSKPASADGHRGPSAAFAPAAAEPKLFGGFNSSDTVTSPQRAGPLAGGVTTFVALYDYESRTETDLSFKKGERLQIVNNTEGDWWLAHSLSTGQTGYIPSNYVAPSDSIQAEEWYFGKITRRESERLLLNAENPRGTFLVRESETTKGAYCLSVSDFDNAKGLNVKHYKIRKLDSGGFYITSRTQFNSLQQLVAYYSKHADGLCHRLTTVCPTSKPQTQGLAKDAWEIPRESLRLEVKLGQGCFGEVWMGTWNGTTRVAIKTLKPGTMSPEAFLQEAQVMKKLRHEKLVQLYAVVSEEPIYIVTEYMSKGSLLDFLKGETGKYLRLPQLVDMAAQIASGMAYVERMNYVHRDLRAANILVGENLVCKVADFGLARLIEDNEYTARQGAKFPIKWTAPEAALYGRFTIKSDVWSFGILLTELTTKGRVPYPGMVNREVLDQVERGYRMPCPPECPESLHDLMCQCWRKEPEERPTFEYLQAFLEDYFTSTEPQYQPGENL
The next experiment deals with T4, Btk (Homo sapiens, UniProt Q06187).
T4 construct: purchased Invitrogen (assay run by Reaction Biology Corporation) PV3363
Described as above. The format is biochemical. Conditions: 200 µM ATP, values above 1 µM estimated from curve fit.

Data on eleven compounds can be found in PMC7249037, “Phenylpyrazalopyrimidines as Tyrosine Kinase Inhibitors: Synthesis, Antiproliferative Activity, and Molecular Simulations” (Molecules, 2020).

A word on the pIC50: it is the IC50 on a negative log10 scale, so that one unit is a factor of ten. Usually inhibition stands for the relative decrease from the control value, in per cent. High values mean strong suppression, low ones little suppression.

SMILES strings stand for the structures. pIC50: −log10 of the molar value. “And” between values parts separate entries of the source, which are not always exact repeats. Equal entries are not always repeated.

T4 sequence (Q06187 whole entry): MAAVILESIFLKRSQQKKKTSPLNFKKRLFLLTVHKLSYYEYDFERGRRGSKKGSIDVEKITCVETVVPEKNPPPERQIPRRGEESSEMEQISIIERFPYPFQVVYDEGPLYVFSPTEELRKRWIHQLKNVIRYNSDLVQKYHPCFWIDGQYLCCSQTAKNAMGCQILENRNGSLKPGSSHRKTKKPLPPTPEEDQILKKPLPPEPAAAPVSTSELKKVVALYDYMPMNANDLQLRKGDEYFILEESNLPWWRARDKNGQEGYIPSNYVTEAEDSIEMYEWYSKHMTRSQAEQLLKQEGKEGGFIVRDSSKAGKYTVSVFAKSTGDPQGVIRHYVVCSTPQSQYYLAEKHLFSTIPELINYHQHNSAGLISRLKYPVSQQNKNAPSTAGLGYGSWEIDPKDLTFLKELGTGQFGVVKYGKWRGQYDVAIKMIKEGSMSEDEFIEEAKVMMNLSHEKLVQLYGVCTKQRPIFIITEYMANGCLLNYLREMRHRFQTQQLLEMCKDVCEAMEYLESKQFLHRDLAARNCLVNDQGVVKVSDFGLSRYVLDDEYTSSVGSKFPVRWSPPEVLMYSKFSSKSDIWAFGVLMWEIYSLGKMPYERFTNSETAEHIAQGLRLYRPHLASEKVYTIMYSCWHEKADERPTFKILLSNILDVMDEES
T3 sequence (P31749 whole entry): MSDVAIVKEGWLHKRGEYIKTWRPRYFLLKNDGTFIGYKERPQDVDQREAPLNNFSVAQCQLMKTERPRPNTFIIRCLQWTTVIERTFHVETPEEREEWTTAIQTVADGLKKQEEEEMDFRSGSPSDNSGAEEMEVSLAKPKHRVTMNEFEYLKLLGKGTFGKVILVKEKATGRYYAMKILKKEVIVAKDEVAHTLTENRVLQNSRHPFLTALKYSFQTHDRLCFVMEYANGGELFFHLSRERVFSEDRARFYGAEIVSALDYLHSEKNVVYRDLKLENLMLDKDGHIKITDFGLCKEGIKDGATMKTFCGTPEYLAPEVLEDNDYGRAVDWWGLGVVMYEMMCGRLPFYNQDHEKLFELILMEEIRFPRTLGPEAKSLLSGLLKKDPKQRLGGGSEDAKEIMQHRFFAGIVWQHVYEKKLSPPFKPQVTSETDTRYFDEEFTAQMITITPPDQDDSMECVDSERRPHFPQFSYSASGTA
T2 sequence (P06239 whole entry): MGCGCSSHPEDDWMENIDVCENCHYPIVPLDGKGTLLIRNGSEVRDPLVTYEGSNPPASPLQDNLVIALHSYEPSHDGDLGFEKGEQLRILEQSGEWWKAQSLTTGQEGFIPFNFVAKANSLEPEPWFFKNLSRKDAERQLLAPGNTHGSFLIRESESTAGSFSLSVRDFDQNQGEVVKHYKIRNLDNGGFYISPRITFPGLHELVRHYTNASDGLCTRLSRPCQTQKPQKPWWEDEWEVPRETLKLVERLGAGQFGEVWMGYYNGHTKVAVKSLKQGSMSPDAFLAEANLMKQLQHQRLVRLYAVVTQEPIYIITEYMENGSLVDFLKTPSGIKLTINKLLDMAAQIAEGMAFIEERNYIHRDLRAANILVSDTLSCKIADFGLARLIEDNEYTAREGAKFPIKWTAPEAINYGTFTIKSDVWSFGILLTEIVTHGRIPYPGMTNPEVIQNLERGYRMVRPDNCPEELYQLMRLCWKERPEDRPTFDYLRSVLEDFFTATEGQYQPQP

`CC(=O)Cn1nc(-c2ccccc2)c2c(N)ncnc21` [Compound 2, 1-(4-Amino-3-phenyl-1H-pyrazolo[3,4-d]pyrimidin-1-yl)propan-2-one]: the “reducing the cell proliferation (in words)” value in the experiment on CCRF-CEM cells (50 µM) was “inactive”; with MDA-MB-231 cells (MDA-MB-231, 50 µM) it was “inactive”; in the experiment on HT-29 cells (HT-29, 50 µM), “inactive”; in the experiment with SK-OV-3 cells (SK-OV-3, 50 µM), “inactive”.
With `CC(=O)C(=Cc1ccc(C)cc1)n1nc(-c2ccccc2)c2c(N)ncnc21` [Compound 3, 3-(4-Amino-3-phenyl-1H-pyrazolo[3,4-d]pyrimidin-1-yl)-4-p-tolylbut-3-en-2-one], the pIC50 at c-Src [1] was 4.48.
Still for that read-out and setting: for `CC(=O)C(=Cc1cccc(C)c1)n1nc(-c2ccccc2)c2c(N)ncnc21` [Compound 4, 3-(4-Amino-3-phenyl-1H-pyrazolo[3,4-d]pyrimidin-1-yl)-4-m-tolylbut-3-en-2-one] the value was 4.61; for `CC(=O)/C(=C\c1ccc(-c2ccccc2)cc1)n1nc(-c2ccccc2)c2c(N)ncnc21` [Compound 5, 3-(4-Amino-3-phenyl-1H-pyrazolo[3,4-d]pyrimidin-1-yl)-4-p-biphenylbut-3-en-2-one], 3.72.
For `COc1ccc(C=C(C(C)=O)n2nc(-c3ccccc3)c3c(N)ncnc32)cc1` [Compound 6, 3-(4-Amino-3-phenyl-1H-pyrazolo[3,4-d]pyrimidin-1-yl)-4-(4-methoxyphenyl)but-3-en-2-one], at c-Src [1], the pIC50 was 4.66.
For the compound `CC(=O)C(=Cc1ccc(N(C)C)cc1)n1nc(-c2ccccc2)c2c(N)ncnc21` [Compound 7, 3-(4-Amino-3-phenyl-1H-pyrazolo[3,4-d]pyrimidin-1-yl)-4-(4-(dimethylamino)phenyl)but-3-en-2-one], the pIC50 against c-Src [1] is 4.43. The “reducing the cell proliferation (in words)” value was “inactive” in the experiment on CCRF-CEM cells (50 µM); “inactive” with MDA-MB-231 cells (MDA-MB-231, 50 µM); “inactive” in the experiment with HT-29 cells (HT-29, 50 µM); “inactive” with SK-OV-3 cells (SK-OV-3, 50 µM).
As for `CC(=O)C(=Cc1cccc([N+](=O)[O-])c1)n1nc(-c2ccccc2)c2c(N)ncnc21` [Compound 9, 3-(4-Amino-3-phenyl-1H-pyrazolo[3,4-d]pyrimidin-1-yl)-4-(3-nitrophenyl)but-3-en-2-one], the “reducing the cell proliferation (in words)” value was “inactive” with CCRF-CEM cells (50 µM); “inactive” in the experiment with MDA-MB-231 cells (MDA-MB-231, 50 µM); “inactive” with HT-29 cells (HT-29, 50 µM); “inactive” in the experiment on SK-OV-3 cells (SK-OV-3, 50 µM).
As for `CC(=O)C(=Cc1ccc(Cl)cc1)n1nc(-c2ccccc2)c2c(N)ncnc21` [Compound 10, 3-(4-Amino-3-phenyl-1H-pyrazolo[3,4-d]pyrimidin-1-yl)-4-(4-chlorophenyl)but-3-en-2-one], the pIC50 at Lck was 3.96; at Akt1, less than 3.82; at c-Src [2], 4.22 and 4.19; on Btk it was 4.04 and 4.02; in the experiment on SK-OV-3 cells (Homo sapiens), 4.59. In addition, the inhibition at 50 µM in the experiment on CCRF-CEM cells (Homo sapiens, 50 µM, 96 h) stood at 79%; in the experiment with MDA-MB-231 cells (Homo sapiens, MDA-MB-231, 50 µM, 96 h) it was 60%; with HT-29 cells (Homo sapiens, HT-29, 50 µM, 96 h), 90%; in the experiment on SK-OV-3 cells (Homo sapiens, SK-OV-3, 50 µM, 96 h), 79%.
As for `CC(=O)C(=Cc1ccc(Cl)cc1Cl)n1nc(-c2ccccc2)c2c(N)ncnc21` [Compound 11, 3-(4-Amino-3-phenyl-1H-pyrazolo[3,4-d]pyrimidin-1-yl)-4-(2,4-dichlorophenyl)but-3-en-2-one], the pIC50 in the experiment on SK-OV-3 cells (Homo sapiens) was 4.46.
`CC(=O)C(=Cc1ccccc1Cl)n1nc(-c2ccccc2)c2c(N)ncnc21` [Compound 12, 3-(4-Amino-3-phenyl-1H-pyrazolo[3,4-d]pyrimidin-1-yl)-4-(2-chlorophenyl)but-3-en-2-one]: the “reducing the cell proliferation (in words)” value with CCRF-CEM cells (50 µM) was “inactive”; in the experiment with MDA-MB-231 cells (MDA-MB-231, 50 µM), “inactive”; in the experiment with HT-29 cells (HT-29, 50 µM), “inactive”; with SK-OV-3 cells (SK-OV-3, 50 µM), “inactive”.
Consider `COc1cccc2c1C(=O)c1c(O)c3c(c(O)c1C2=O)C[C@@](O)(C(=O)CO)C[C@@H]3O[C@H]1C[C@H](N)[C@H](O)[C@H](C)O1` [Dox, Doxorubicin, reference compound], for which the inhibition at 1 µM in the experiment on CCRF-CEM cells (Homo sapiens, Dox positive control (1 µM in Figure 3, 10 µM in method), 96 h) was found to be 73%; in the experiment with MDA-MB-231 cells (Homo sapiens, MDA-MB-231, Dox positive control (1 µM in Figure 3, 10 µM in method), 96 h) it was 64%; in the experiment with HT-29 cells (Homo sapiens, HT-29, Dox positive control (1 µM in Figure 3, 10 µM in method), 96 h) it was 75%; with SK-OV-3 cells (Homo sapiens, SK-OV-3, Dox positive control (1 µM in Figure 3, 10 µM in method), 96 h) it was 73%.
